{"source": "ChEMBL document CHEMBL1201862", "about": "“PubChem BioAssay data set” (2004)", "key": {"[1]": {"test_system": "BJ", "test": "cells", "format": "functional, cell-based", "conditions": "Homo sapiens"}, "[2]": {"molecular_target": "T1, Fatty acid synthase (Homo sapiens, UniProt P49327)", "T1 sequence (P49327 whole entry)": "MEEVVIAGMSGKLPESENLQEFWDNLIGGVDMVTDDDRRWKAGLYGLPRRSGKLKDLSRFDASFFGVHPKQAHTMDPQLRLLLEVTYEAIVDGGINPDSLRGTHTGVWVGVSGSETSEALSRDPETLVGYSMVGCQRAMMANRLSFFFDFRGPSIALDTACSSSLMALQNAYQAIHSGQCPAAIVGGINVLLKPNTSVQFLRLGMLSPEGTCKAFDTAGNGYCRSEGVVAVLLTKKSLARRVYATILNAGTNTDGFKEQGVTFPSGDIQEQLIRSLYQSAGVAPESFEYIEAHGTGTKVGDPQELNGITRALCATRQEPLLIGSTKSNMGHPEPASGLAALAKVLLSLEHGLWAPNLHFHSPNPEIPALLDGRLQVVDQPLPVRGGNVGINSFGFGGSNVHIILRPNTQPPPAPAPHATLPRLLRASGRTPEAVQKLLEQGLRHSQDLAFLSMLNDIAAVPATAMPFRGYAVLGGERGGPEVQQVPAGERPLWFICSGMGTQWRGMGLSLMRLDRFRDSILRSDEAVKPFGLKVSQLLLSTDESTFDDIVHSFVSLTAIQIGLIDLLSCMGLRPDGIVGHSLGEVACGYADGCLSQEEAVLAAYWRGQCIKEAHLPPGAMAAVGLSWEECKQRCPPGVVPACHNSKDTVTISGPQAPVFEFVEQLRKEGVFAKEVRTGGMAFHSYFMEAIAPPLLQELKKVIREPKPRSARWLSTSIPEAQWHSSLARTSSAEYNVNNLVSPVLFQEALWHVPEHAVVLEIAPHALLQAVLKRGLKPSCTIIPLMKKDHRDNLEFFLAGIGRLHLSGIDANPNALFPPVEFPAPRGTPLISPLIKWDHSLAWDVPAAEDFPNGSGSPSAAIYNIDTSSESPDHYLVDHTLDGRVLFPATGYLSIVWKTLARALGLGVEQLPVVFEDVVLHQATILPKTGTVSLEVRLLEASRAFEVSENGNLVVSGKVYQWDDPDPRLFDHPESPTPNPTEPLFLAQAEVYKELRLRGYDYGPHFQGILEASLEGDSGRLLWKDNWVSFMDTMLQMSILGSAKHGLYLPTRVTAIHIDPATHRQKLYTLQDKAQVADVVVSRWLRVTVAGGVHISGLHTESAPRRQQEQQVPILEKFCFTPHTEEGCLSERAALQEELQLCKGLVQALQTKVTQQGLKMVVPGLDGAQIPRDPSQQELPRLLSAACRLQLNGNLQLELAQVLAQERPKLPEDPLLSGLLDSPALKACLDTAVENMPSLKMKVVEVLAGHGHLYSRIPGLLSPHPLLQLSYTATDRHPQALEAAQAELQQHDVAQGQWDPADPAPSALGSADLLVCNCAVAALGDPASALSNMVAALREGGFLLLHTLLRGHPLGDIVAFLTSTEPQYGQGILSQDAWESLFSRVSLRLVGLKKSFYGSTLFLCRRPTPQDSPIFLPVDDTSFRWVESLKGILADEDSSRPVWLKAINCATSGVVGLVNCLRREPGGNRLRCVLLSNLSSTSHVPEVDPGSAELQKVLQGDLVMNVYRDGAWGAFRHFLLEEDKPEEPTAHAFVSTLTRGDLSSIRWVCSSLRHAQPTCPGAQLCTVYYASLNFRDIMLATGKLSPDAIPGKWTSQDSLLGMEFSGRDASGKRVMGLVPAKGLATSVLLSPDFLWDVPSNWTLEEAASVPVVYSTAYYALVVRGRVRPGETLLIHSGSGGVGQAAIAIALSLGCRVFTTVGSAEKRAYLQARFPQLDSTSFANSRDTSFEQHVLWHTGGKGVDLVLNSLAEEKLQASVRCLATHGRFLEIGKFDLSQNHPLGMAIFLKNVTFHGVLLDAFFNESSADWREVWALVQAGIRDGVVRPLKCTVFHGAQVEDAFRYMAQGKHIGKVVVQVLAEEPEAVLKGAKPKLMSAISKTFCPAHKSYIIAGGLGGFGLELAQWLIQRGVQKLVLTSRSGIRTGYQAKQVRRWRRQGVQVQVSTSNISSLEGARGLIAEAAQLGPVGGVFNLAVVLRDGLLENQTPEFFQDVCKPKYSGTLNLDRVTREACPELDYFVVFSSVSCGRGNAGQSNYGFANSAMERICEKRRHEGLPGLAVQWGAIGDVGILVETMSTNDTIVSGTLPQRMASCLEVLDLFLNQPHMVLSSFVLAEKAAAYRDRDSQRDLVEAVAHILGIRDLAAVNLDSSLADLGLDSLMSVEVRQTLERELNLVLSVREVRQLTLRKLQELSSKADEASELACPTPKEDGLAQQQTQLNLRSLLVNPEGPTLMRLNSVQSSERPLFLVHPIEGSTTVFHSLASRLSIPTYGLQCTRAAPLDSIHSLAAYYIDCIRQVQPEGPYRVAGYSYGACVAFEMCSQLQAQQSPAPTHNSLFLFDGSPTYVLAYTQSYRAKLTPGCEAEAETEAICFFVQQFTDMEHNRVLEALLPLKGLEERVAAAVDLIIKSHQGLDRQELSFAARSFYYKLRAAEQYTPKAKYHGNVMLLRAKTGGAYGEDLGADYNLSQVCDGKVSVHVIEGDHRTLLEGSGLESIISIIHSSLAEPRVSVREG", "test": "inhibition of human FAS-TE enzyme activity – biochemical, endpoint fluorescence intensity, uHTS hits, dose response (AID 624327);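 also: fluorescence from hydrolysis of an O-methyl fluorescein acyl ester substrate by the enzyme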", "format": "functional"}, "[3]": {"test_system": "BJ", "test": "BJ-TERT-LT-ST fibroblast viability loss – cell-based, RAS-independent, luminescence, dose response (AID 1935);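 also: BJ fibroblasts immortalized with TERT plus LT and ST oncogenes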", "format": "functional", "conditions": "Homo sapiens"}, "[4]": {"test": "DRD fibroblast viability loss – cell-based, non-viral oncogenic, luminescence, dose response (AID 1934)", "format": "functional", "conditions": "Homo sapiens"}, "[5]": {"molecular_target": "T2, Replicative DNA helicase DnaB (Mycobacterium tuberculosis, UniProt P9WMR3)", "T2 sequence (P9WMR3 whole entry)": "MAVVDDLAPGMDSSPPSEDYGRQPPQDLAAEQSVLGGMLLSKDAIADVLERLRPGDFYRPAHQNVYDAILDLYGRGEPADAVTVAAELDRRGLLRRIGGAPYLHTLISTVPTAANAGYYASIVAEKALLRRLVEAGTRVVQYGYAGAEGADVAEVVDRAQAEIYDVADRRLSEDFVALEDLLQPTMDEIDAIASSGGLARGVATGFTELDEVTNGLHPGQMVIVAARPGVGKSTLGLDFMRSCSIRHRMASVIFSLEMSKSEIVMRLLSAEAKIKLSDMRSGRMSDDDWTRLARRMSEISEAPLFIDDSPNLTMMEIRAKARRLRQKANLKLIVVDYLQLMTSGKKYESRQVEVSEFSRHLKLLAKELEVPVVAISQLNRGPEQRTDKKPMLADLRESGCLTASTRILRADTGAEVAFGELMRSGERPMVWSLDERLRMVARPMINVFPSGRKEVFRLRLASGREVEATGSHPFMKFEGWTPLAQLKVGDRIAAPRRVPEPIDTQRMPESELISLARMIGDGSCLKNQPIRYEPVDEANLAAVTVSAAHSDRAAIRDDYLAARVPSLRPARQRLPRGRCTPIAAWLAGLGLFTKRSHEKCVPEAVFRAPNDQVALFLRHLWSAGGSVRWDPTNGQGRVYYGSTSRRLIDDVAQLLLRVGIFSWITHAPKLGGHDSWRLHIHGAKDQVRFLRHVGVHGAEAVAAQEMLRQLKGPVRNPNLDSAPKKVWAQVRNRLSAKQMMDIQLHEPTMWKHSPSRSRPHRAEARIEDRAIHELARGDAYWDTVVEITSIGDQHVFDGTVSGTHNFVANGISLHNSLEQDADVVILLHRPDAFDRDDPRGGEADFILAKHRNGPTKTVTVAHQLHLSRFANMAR", "test": "DnaB intein splicing inhibitors, dose response, biochemical, cell-free fluorescence (AID 449749)", "format": "functional"}, "[6]": {"test": "Luminescence Cell-Based Dose Confirmation HTS to Identify Inhibitors of Platelet Dense Granule Release. [Related pubchem assays: 1663 (Primary HTS), 1678 (Summary of Project)]", "format": "functional"}, "[7]": {"molecular_target": "T3, Beta Lactamase (Pseudomonas aeruginosa, UniProt Q932Y6)", "T3 sequence (Q932Y6 whole entry)": "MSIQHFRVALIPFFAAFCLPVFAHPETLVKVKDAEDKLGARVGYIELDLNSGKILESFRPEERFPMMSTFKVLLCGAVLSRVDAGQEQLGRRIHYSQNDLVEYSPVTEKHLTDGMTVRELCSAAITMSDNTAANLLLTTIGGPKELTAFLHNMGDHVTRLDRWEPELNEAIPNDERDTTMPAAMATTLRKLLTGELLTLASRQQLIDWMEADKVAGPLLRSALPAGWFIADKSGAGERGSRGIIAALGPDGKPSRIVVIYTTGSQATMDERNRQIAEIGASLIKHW", "test": "BLA reporter interference, concentration series – BLA reporter cells, FRET fluorescence, artefact control for NOD2-RIPK2 interaction inhibitor project, dose response (AID 651552)", "format": "functional, cell-based"}, "[8]": {"test": "Fluorescence-based cell-based high throughput dose response assay for inhibitors of the interaction of nucleotide-binding oligomerization domain containing 2 (NOD2) and the receptor-interacting serine-threonine kinase 2 (RIPK2).", "format": "functional", "conditions": "Homo sapiens"}, "[9]": {"test_system": "CHO", "test": "CHO cell viability loss, potency – luminescence, cytotoxicity control for TLR9-MyD88 binding inhibitor project, dose response (AID 588339);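 also: CHO cells stably coexpressing TLR9 and MyD88 fusions from primary screen; compound exposure lasted 48 hours before viability readout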", "format": "functional, cell-based, hamster", "conditions": "Cricetulus griseus"}, "[10]": {"molecular_target": "T4, Protein RecA (Mycobacterium tuberculosis, UniProt P9WHJ3)", "T4 sequence (P9WHJ3 whole entry)": "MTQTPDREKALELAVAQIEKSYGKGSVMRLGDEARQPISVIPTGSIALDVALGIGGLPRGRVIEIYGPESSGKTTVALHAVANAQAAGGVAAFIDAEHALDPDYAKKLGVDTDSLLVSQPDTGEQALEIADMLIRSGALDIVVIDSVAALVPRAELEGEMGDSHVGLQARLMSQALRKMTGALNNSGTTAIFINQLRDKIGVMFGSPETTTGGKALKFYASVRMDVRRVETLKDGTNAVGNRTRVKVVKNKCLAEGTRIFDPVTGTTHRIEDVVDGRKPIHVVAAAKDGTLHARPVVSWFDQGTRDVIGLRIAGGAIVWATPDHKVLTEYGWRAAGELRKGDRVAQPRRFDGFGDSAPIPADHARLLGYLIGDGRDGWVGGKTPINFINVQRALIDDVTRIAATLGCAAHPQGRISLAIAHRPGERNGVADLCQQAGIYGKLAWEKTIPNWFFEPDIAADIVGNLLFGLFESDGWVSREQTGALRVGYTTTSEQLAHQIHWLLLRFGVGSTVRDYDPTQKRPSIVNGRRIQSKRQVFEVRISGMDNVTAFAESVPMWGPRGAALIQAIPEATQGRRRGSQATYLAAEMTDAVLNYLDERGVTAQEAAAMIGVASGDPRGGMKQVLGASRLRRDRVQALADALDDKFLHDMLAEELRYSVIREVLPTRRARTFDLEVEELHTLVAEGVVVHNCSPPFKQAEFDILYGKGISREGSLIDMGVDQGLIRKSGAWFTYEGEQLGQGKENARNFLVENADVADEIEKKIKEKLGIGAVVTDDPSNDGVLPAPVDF", "test": "Fluorescence Cell-Free Homogeneous Dose Retest to Identify Inhibitors of RecA-Intein Splicing Activity. [Related pubchem assays (depositor defined):AID2097, AID2223, AID489010, AID492950]", "format": "functional"}, "[11]": {"test_system": "BJ", "test": "growth inhibition of engineered Ras-driven BJ cells – cell-based, alamar blue fluorescence, cherrypicked samples, dose response (AID 2631)", "format": "functional", "conditions": "Homo sapiens"}, "[12]": {"molecular_target": "Large T antigen (Simian virus 40, UniProt P03070)", "sequence (P03070 whole entry)": "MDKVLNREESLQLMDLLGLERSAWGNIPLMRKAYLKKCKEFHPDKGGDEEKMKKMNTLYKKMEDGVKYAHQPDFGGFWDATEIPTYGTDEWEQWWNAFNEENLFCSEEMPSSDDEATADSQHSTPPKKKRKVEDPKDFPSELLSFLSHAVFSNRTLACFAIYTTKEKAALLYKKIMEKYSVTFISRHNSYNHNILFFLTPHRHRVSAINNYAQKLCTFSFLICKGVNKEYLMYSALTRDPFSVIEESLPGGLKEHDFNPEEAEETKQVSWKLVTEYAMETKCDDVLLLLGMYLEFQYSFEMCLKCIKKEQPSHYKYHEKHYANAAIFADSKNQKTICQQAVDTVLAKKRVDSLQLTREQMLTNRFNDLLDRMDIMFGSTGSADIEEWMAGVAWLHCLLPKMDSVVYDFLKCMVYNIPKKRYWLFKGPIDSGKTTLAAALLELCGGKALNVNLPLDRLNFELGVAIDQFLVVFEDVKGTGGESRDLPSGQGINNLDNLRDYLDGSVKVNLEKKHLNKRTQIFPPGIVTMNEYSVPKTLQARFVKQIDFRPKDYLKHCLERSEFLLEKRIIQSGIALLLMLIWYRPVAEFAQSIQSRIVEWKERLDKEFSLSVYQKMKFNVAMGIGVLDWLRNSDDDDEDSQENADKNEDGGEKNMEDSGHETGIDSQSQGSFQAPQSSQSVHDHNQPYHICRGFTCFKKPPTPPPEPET", "format": "functional, Betapolyomavirus macacae"}, "[13]": {"test_system": "Vero", "test": "viability of Vero cells under compound – cytotoxicity control for flavivirus capping enzyme inhibitors (AID 588742)", "format": "functional", "conditions": "Chlorocebus sabaeus"}, "[14]": {"molecular_target": "Luciferin 4-monooxygenase (Photinus pyralis, UniProt P08659)", "sequence (P08659 whole entry)": "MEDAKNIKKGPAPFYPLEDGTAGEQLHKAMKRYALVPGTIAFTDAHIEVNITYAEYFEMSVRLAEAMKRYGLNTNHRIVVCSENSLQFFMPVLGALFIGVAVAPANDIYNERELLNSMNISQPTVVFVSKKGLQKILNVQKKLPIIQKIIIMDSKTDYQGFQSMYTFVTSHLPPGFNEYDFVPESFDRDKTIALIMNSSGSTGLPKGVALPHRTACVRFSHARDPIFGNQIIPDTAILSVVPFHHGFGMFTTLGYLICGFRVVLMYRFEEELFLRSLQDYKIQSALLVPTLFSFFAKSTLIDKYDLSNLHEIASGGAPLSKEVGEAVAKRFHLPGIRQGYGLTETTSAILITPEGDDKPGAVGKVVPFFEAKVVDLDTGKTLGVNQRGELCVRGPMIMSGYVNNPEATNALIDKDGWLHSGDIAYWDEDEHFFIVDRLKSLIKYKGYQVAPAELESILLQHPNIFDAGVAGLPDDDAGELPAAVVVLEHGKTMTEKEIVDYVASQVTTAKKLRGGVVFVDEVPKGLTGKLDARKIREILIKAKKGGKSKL", "test": "inhibition of purified Photinus pyralis luciferase – biochemical, luminescence, dose response (AID 1891)"}, "[15]": {"test_system": "BJ", "test": "BJ-TERT fibroblast viability loss – cell-based, RAS-independent, luminescence, dose response (AID 1933)", "format": "functional", "conditions": "Homo sapiens"}, "[16]": {"molecular_target": "T3, Beta Lactamase", "test": "BLA reporter interference, concentration series – BLA reporter cells, FRET fluorescence, artefact control for TLR9-MyD88 binding inhibitor project, dose response (AID 588341);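 also: cell based assay in CHO-K1 cells stably expressing beta-lactamase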", "format": "cell-based"}, "[17]": {"test_system": "INS1", "test": "INS-1E survival protection against cytokine death – cell-based, luminescence, retest, dose response (AID 449756);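 also: cell death triggered by IL-1 beta plus TNF-alpha plus IFN-gamma mixture; protective hits raise ATP signal compared with cytokine alone wells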", "format": "functional", "conditions": "Rattus norvegicus"}, "[18]": {"molecular_target": "T1, Fatty acid synthase", "test": "inhibition of human FAS-TE enzyme activity – biochemical, kinetic fluorescence intensity, dose response (AID 624326);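 also: rate of fluorescence rise from hydrolysis of a fluorogenic O-methyl fluorescein ester substrate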", "format": "functional"}, "[19]": {"molecular_target": "Genome polyprotein (dengue virus type 2, UniProt P29990)", "test": "flavivirus cap methylation enzyme inhibition – biochemical, confirmation dose response, primary screen (AID 588689)", "format": "functional"}, "[20]": {"molecular_target": "Mitochondrial peptide methionine sulfoxide reductase (Bos taurus, UniProt P54149)", "sequence (P54149 whole entry)": "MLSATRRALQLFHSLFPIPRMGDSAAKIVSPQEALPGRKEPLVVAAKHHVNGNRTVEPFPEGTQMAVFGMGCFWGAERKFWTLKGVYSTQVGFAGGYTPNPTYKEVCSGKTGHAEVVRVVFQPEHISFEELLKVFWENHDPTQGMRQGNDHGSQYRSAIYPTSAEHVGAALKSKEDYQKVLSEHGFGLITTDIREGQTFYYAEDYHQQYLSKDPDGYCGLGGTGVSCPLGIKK", "format": "functional"}, "[21]": {"molecular_target": "T5, Orexin receptor type 2 (Homo sapiens, UniProt O43614)", "T5 sequence (O43614 whole entry)": "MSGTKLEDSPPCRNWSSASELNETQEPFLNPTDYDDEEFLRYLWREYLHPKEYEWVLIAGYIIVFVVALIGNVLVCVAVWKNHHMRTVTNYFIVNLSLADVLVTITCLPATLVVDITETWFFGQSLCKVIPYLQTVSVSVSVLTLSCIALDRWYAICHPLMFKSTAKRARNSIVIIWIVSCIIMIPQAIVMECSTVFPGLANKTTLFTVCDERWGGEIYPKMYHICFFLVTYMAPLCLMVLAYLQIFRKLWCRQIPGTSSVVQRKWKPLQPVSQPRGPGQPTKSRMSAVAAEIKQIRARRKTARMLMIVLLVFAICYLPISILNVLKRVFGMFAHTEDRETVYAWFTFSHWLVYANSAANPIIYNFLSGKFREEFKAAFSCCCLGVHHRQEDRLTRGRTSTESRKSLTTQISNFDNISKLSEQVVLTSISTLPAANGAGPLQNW", "test": "Counterscreen assay for antagonists of the orexin 1 receptor (OX1R; HCRTR1): Fluorescence-based cell-based dose response assay for antagonists of the orexin 2 receptor (OX2R; HCRTR2), run by assay provider.", "format": "functional"}, "[22]": {"test": "viability of PTEN-deleted HCT116 cells – cell-based, HCT116 PTEN knockout, dose response (AID 1047);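 also: HCT116 colon tumor cells with PTEN knocked out; cells exposed to compound for 60 hours before readout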", "format": "functional"}, "[23]": {"molecular_target": "T5, Orexin receptor type 2", "test": "Counterscreen assay for antagonists of the orexin 1 receptor (OX1R; HCRTR1): Homogeneous Time Resolved Fluorescence (HTRF)-based cell-based dose response assay for antagonists of the orexin 2 receptor (OX2R; HCRTR2), run by assay provider.", "format": "functional"}, "[24]": {"test": "viability of HCT116 lacking mutant beta-catenin – cell-based, human colon tumor, dose response (AID 1045);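 also: HCT116 colon tumor cells with beta catenin knocked out; cells exposed to compound for 60 hours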", "format": "functional"}}, "note": "Calls of active or inactive are those of the source."}
{"smiles": "O=[N+]([O-])c1c(Nc2ccc(O)cc2)cc(Cl)c2nonc12", "values": [{"measurement": "EC50", "setting": "[1]", "value": "5.3 µM (inconclusive)"}, {"measurement": "IC50", "setting": "[2]", "value": "5.26 µM (active)"}, {"measurement": "EC50", "setting": "[3]", "value": "3.96 µM (inconclusive)"}, {"measurement": "EC50", "setting": "[4]", "value": "2.66 µM (active)"}, {"measurement": "AC50", "setting": "[5]", "value": "1.1 µM (active)"}, {"measurement": "EC50", "setting": "[6]", "value": "4.2 µM (active)"}, {"measurement": "IC50", "setting": "[7]", "value": "5.98 µM (active)"}, {"measurement": "IC50", "setting": "[8]", "value": "0.969 µM (active)"}, {"measurement": "IC50", "setting": "[9]", "value": "1.13 µM (active)"}, {"measurement": "EC50", "setting": "[10]", "value": "0.926 µM (active)"}, {"measurement": "EC50", "setting": "[11]", "value": "0.501 µM (active)"}, {"measurement": "IC50", "setting": "[12]", "value": "12.3 µM (active)"}, {"measurement": "CC50", "setting": "[13]", "value": "16.9 µM (active)"}, {"measurement": "EC50", "setting": "[14]", "value": "> 112 µM (not active)"}, {"measurement": "EC50", "setting": "[15]", "value": "1.92 µM (inconclusive)"}, {"measurement": "IC50", "setting": "[16]", "value": "6.38 µM (active)"}, {"measurement": "AC50", "setting": "[17]", "value": "5.23 µM (active)"}, {"measurement": "IC50", "setting": "[18]", "value": "4.41 µM (active)"}, {"measurement": "IC50", "setting": "[19]", "value": "10.4 µM (active)"}]}
{"smiles": "Cc1c(OCC(=O)N(C)C)ccc2c(-c3ccccc3)cc(=O)oc12", "values": [{"measurement": "IC50", "setting": "[20]", "value": "93.6 µM (inactive)"}]}
{"smiles": "O=C(c1ccco1)N1CCCC(c2nc(-c3ccc(S(=O)(=O)NCc4ccccc4)cc3)no2)C1", "note": "(centres undefined)", "values": [{"measurement": "IC50", "setting": "[21]", "value": "39.3 µM (inactive)"}, {"measurement": "EC50", "setting": "[22]", "value": "21.2 µM (active)"}, {"measurement": "IC50", "setting": "[23]", "value": "5.51 µM (active)"}, {"measurement": "EC50", "setting": "[24]", "value": "18.6 µM (active)"}]}
